Test results published in ChEMBL document CHEMBL6127029, “Glutathione-dependent degradation of SMARCA2/4 for targeted lung cancer therapy with improved selectivity” (Eur J Med Chem, 2024).
Calls of active or inactive are those of the source. The calls are words filed in the database; no cut-off is given here.

Experiments:
[1] = Stability of the compound in cell culture medium containing 10% fetal bovine serum at 50 uM incubated for 12 hrs by HPLC analysis; format: physicochemical, cell-free; details: cattle
[2] = Stability of the compound in cell culture medium containing 10% fetal bovine serum assessed as drug degradation at 50 uM incubated for 12 hrs by HPLC analysis; format: physicochemical, cell-free; details: cattle, read-out: Drug degradation
A549 = experiment: Reduction in intracellular GSH level in human A549 cells by measuring decrease in fluorescence signal at 10 uM incubated for 10 mins in presence of GSH scavenger NEM by fluorescence microscopic analysis; format: functional, cell-based

| Compound | Stability [1] | degraded at 12 h, 50 µM [2] | Activity (A549) |
| --- | --- | --- | --- |
| Cc1ncsc1-c1ccc(CNC(=O)[C@@H]2C[C@@H](O)CN2C(=O)[C@@H](NC(=O)CN2CCN(c3cc(-c4ccccc4OS(=O)(=O)c4ccc([N+](=O)[O-])c(F)c4)nnc3N)CC2)C(C)(C)C)cc1 | Unstable | > 60% | – |
| CCN(CCN1C(=O)C=CC1=O)c1ccc2c(C)cc(=O)oc2c1 | – | – | Active |
